In patent US9062124B2, “GIP-based mixed agonists for treatment of metabolic disorders and obesity” (priority 2008, dated 2015):
Where a SMILES comes first, the peptide text is derived from it. [ ]: non-standard residue; d: D form. Dab = NCC[C@H](N)C(=O)O; Aib = CC(C)(N)C(=O)O

Legend:
Format in all cases: cell-based
glucagon receptor = biological target: T1, glucagon receptor (Homo sapiens, UniProt P47871); experiment: cAMP synthesis functional assay (firefly luciferase reporter in HEK293 cells), glucagon receptor; settings: for EC50: Glucagon Receptor EC50, cAMP luciferase reporter assay as in Example 16
T1 construct: expressed in transfected cells; host or cells: HEK293
T1 sequence (P47871 26-477): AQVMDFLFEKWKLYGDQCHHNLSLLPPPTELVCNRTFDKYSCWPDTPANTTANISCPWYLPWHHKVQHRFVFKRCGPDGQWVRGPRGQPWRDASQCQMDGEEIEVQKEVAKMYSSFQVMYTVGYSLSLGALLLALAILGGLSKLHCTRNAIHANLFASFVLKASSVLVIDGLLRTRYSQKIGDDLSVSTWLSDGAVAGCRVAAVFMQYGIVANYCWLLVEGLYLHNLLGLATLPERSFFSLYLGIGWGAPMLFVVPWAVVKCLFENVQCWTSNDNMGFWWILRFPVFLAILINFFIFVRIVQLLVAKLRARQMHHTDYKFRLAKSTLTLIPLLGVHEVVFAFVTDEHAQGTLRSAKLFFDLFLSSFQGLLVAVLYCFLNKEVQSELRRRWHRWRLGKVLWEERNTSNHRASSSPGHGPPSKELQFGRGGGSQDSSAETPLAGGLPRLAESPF

GLP-1 receptor = biological target: T2, GLP-1 receptor (Homo sapiens, UniProt P43220); experiment: cAMP synthesis functional assay (firefly luciferase reporter in HEK293 cells), GLP-1 receptor; settings: for EC50: GLP-1 Receptor EC50, cAMP luciferase reporter assay as in Example 16
T2 construct: expressed in transfected cells; host or cells: HEK293
T2 sequence (P43220 24-463, species assumed): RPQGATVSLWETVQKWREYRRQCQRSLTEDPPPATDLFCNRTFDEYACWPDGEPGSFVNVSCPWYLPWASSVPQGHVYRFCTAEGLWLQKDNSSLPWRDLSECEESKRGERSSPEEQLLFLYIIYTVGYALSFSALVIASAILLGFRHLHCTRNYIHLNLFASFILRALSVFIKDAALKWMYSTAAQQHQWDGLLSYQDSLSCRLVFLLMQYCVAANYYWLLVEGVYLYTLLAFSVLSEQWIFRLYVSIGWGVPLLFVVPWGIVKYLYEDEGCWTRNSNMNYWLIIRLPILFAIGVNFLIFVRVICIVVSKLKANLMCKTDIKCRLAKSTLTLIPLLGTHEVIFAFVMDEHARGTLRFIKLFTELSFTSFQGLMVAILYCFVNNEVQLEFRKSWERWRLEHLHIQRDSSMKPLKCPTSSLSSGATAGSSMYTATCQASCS

GIP receptor = biological target: T3, GIP receptor (Homo sapiens, UniProt P48546); experiment: cAMP synthesis functional assay (firefly luciferase reporter in HEK293 cells), GIP receptor; settings: for EC50: GIP Receptor EC50, cAMP luciferase reporter assay as in Example 16
T3 construct: expressed in transfected cells; host or cells: HEK293
T3 sequence (P48546 22-466): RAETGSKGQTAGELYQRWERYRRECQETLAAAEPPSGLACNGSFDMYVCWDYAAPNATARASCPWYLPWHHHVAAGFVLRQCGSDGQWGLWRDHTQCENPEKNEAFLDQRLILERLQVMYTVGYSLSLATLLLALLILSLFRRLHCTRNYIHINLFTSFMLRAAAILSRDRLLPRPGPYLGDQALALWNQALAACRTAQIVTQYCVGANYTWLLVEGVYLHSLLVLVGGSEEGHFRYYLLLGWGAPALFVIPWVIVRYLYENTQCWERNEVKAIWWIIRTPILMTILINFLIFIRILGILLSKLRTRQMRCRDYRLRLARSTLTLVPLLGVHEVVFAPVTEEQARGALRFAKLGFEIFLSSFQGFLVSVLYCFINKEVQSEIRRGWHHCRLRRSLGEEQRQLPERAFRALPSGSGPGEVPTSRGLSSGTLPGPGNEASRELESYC

[1] = system: glucagon receptor, GLP-1 receptor or GIP receptor; experiment: Agonist profile across receptors assigned from the cAMP reporter assay data; settings: assigned from the in vitro EC50 data of Tables 1-4
[2] = relative to the standard (Std.) EC50 of the same run

SMILES | Glucagon Receptor relative activity (glucagon receptor; Table 2) | GLP-1 Receptor relative activity (GLP-1 receptor; Table 2) | GIP Receptor relative activity (GIP receptor; Table 2) | receptor activity profile (glucagon / GLP-1 / GIP agonism) [1] | EC50 (glucagon receptor) | Glucagon Receptor relative activity (glucagon receptor; [2]) | EC50 (GLP-1 receptor) | GLP-1 Receptor relative activity (GLP-1 receptor; [2]) | EC50 (GIP receptor) | GIP Receptor relative activity (GIP receptor; [2])
CC[C@H](C)[C@H](NC(=O)[C@H](CO)NC(=O)[C@H](Cc1ccc(O)cc1)NC(=O)[C@H](CC(=O)O)NC(=O)[C@H](CO)NC(=O)[C@@H](NC(=O)[C@H](Cc1ccccc1)NC(=O)[C@@H](NC(=O)CNC(=O)[C@H](CCC(N)=O)NC(=O)C(C)(C)NC(=O)[C@@H](N)Cc1ccc(O)cc1)[C@@H](C)O)[C@@H](C)O)C(=O)N[C@@H](Cc1ccc(O)cc1)C(=O)N[C@@H](CC(C)C)C(=O)N[C@@H](CC(=O)O)C(=O)N[C@@H](CCC(=O)O)C(=O)N[C@@H](CCC(N)=O)C(=O)N[C@@H](C)C(=O)N[C@@H](C)C(=O)NC(C)(C)C(=O)N[C@@H](CCC(=O)O)C(=O)N[C@@H](Cc1ccccc1)C(=O)N[C@H](C(=O)N[C@@H](CS)C(=O)N[C@@H](Cc1c[nH]c2ccccc12)C(=O)N[C@@H](CC(C)C)C(=O)N[C@@H](CC(C)C)C(=O)N[C@@H](C)C(=O)NCC(N)=O)C(C)C [mt-258] (H-Y[Aib]QGTFTSDYSIYLDEQAA[Aib]EFVCWLLAG-NH2; N-terminus assumed) | 14.08% | 58.91% | 16.84% | exhibited activities of glucagon/GLP-1/GIP triagonists |  |  |  |  |  | 
CCCCCCCCCCCCCC(=O)NCCCC[C@H](NC(=O)[C@@H](NC(=O)[C@H](Cc1ccccc1)NC(=O)[C@H](CCC(=O)O)NC(=O)C(C)(C)NC(=O)[C@H](C)NC(=O)[C@H](C)NC(=O)[C@H](CCC(N)=O)NC(=O)[C@H](CCCCN)NC(=O)[C@H](CC(=O)O)NC(=O)[C@H](CC(C)C)NC(=O)[C@H](Cc1ccc(O)cc1)NC(=O)[C@@H](NC(=O)[C@H](CO)NC(=O)[C@H](Cc1ccc(O)cc1)NC(=O)[C@H](CC(=O)O)NC(=O)[C@H](CO)NC(=O)[C@@H](NC(=O)[C@H](Cc1ccccc1)NC(=O)[C@@H](NC(=O)CNC(=O)[C@H](CCC(=O)O)NC(=O)C(C)(C)NC(=O)[C@@H](N)Cc1ccc(O)cc1)[C@@H](C)O)[C@@H](C)O)[C@@H](C)CC)C(C)C)C(=O)N[C@@H](Cc1c[nH]c2ccccc12)C(=O)N[C@@H](CC(C)C)C(=O)N[C@@H](CC(C)C)C(=O)N[C@@H](C)C(=O)NCC(=O)NCC(=O)N1CCC[C@H]1C(=O)N[C@@H](CO)C(=O)N[C@@H](CO)C(=O)NCC(=O)N[C@@H](C)C(=O)N1CCC[C@H]1C(=O)N1CCC[C@H]1C(=O)N1CCC[C@H]1C(=O)N[C@@H](CO)C(N)=O [mt-265] |  |  |  | exhibited activity at the GIP, GLP-1, and glucagon receptors | 6.43 nM | 0.68% | 0.993 nM | 1.77% | 0.0624 nM | 13.62%
CCCCCCCCCCCCCCCC(=O)NCCCC[C@H](NC(=O)[C@@H](NC(=O)[C@H](Cc1ccccc1)NC(=O)[C@H](CCC(=O)O)NC(=O)C(C)(C)NC(=O)[C@H](C)NC(=O)[C@H](C)NC(=O)[C@H](CCC(N)=O)NC(=O)[C@H](CCCCN)NC(=O)[C@H](CC(=O)O)NC(=O)[C@H](CC(C)C)NC(=O)[C@H](Cc1ccc(O)cc1)NC(=O)[C@@H](NC(=O)[C@H](CO)NC(=O)[C@H](Cc1ccc(O)cc1)NC(=O)[C@H](CC(=O)O)NC(=O)[C@H](CO)NC(=O)[C@@H](NC(=O)[C@H](Cc1ccccc1)NC(=O)[C@@H](NC(=O)CNC(=O)[C@H](CCC(=O)O)NC(=O)C(C)(C)NC(=O)[C@@H](N)Cc1ccc(O)cc1)[C@@H](C)O)[C@@H](C)O)[C@@H](C)CC)C(C)C)C(=O)N[C@@H](Cc1c[nH]c2ccccc12)C(=O)N[C@@H](CC(C)C)C(=O)N[C@@H](CC(C)C)C(=O)N[C@@H](C)C(=O)NCC(=O)NCC(=O)N1CCC[C@H]1C(=O)N[C@@H](CO)C(=O)N[C@@H](CO)C(=O)NCC(=O)N[C@@H](C)C(=O)N1CCC[C@H]1C(=O)N1CCC[C@H]1C(=O)N1CCC[C@H]1C(=O)N[C@@H](CO)C(N)=O [mt-266] |  |  |  | exhibited activity at the GIP, GLP-1, and glucagon receptors | 18.6 nM | 0.23% | 1.53 nM | 1.15% | 0.164 nM | 5.19%
CCCCCCCCCCCCCCCCCC(=O)NCCCC[C@H](NC(=O)[C@@H](NC(=O)[C@H](Cc1ccccc1)NC(=O)[C@H](CCC(=O)O)NC(=O)C(C)(C)NC(=O)[C@H](C)NC(=O)[C@H](C)NC(=O)[C@H](CCC(N)=O)NC(=O)[C@H](CCCCN)NC(=O)[C@H](CC(=O)O)NC(=O)[C@H](CC(C)C)NC(=O)[C@H](Cc1ccc(O)cc1)NC(=O)[C@@H](NC(=O)[C@H](CO)NC(=O)[C@H](Cc1ccc(O)cc1)NC(=O)[C@H](CC(=O)O)NC(=O)[C@H](CO)NC(=O)[C@@H](NC(=O)[C@H](Cc1ccccc1)NC(=O)[C@@H](NC(=O)CNC(=O)[C@H](CCC(=O)O)NC(=O)C(C)(C)NC(=O)[C@@H](N)Cc1ccc(O)cc1)[C@@H](C)O)[C@@H](C)O)[C@@H](C)CC)C(C)C)C(=O)N[C@@H](Cc1c[nH]c2ccccc12)C(=O)N[C@@H](CC(C)C)C(=O)N[C@@H](CC(C)C)C(=O)N[C@@H](C)C(=O)NCC(=O)NCC(=O)N1CCC[C@H]1C(=O)N[C@@H](CO)C(=O)N[C@@H](CO)C(=O)NCC(=O)N[C@@H](C)C(=O)N1CCC[C@H]1C(=O)N1CCC[C@H]1C(=O)N1CCC[C@H]1C(=O)N[C@@H](CO)C(N)=O [mt-267] |  |  |  | exhibited activity at the GIP, GLP-1, and glucagon receptors | 62 nM | 0.07% | 2.09 nM | 0.84% | 1.31 nM | 0.65%
CC[C@H](C)[C@H](NC(=O)[C@H](CO)NC(=O)[C@H](Cc1ccc(O)cc1)NC(=O)[C@H](CC(=O)O)NC(=O)[C@H](CO)NC(=O)[C@@H](NC(=O)[C@H](Cc1ccccc1)NC(=O)[C@@H](NC(=O)CNC(=O)[C@H](CCC(N)=O)NC(=O)C(C)(C)NC(=O)[C@@H](N)Cc1ccc(O)cc1)[C@@H](C)O)[C@@H](C)O)C(=O)N[C@@H](Cc1ccc(O)cc1)C(=O)N[C@@H](CC(C)C)C(=O)N[C@@H](CC(=O)O)C(=O)N[C@@H](CCCN)C(=O)N[C@@H](CCC(N)=O)C(=O)N[C@@H](C)C(=O)N[C@@H](C)C(=O)NC(C)(C)C(=O)N[C@@H](CCC(=O)O)C(=O)N[C@@H](Cc1ccccc1)C(=O)N[C@H](C(=O)N[C@@H](CC(N)=O)C(=O)N[C@@H](Cc1c[nH]c2ccccc12)C(=O)N[C@@H](CC(C)C)C(=O)N[C@@H](CC(C)C)C(=O)N[C@@H](C)C(=O)NCC(=O)NCC(=O)N1CCC[C@H]1C(=O)N[C@@H](CO)C(=O)N[C@@H](CO)C(=O)NCC(=O)N[C@@H](C)C(=O)N1CCC[C@H]1C(=O)N1CCC[C@H]1C(=O)N1CCC[C@H]1C(=O)N[C@@H](CO)C(=O)N[C@@H](CS)C(N)=O)C(C)C [mt-275] |  |  |  | exhibited activity at the GIP, GLP-1, and glucagon receptors |  | 62.15% | 0.0068 nM | 104.41% |  | 112.10%
CC[C@H](C)[C@H](NC(=O)[C@H](CO)NC(=O)[C@H](Cc1ccc(O)cc1)NC(=O)[C@H](CC(=O)O)NC(=O)[C@H](CO)NC(=O)[C@@H](NC(=O)[C@H](Cc1ccccc1)NC(=O)[C@@H](NC(=O)CNC(=O)[C@H](CCC(N)=O)NC(=O)C(C)(C)NC(=O)[C@@H](N)Cc1ccc(O)cc1)[C@@H](C)O)[C@@H](C)O)C(=O)N[C@@H](Cc1ccc(O)cc1)C(=O)N[C@@H](CC(C)C)C(=O)N[C@@H](CC(=O)O)C(=O)N[C@@H](CCN)C(=O)N[C@@H](CCC(N)=O)C(=O)N[C@@H](C)C(=O)N[C@@H](C)C(=O)NC(C)(C)C(=O)N[C@@H](CCC(=O)O)C(=O)N[C@@H](Cc1ccccc1)C(=O)N[C@H](C(=O)N[C@@H](CC(N)=O)C(=O)N[C@@H](Cc1c[nH]c2ccccc12)C(=O)N[C@@H](CC(C)C)C(=O)N[C@@H](CC(C)C)C(=O)N[C@@H](C)C(=O)NCC(=O)NCC(=O)N1CCC[C@H]1C(=O)N[C@@H](CO)C(=O)N[C@@H](CO)C(=O)NCC(=O)N[C@@H](C)C(=O)N1CCC[C@H]1C(=O)N1CCC[C@H]1C(=O)N1CCC[C@H]1C(=O)N[C@@H](CO)C(=O)N[C@@H](CS)C(N)=O)C(C)C [mt-276] (H-Y[Aib]QGTFTSDYSIYLD[Dab]QAA[Aib]EFVNWLLAGGPSSGAPPPSC-NH2; N-terminus assumed) |  |  |  | exhibited activity at the GIP, GLP-1, and glucagon receptors |  | 77.65% |  | 107.58% | 0.008 nM | 173.75%
